Experimental data as given in patent publication US10981932B2, “Macrocyclic indole derivatives” (Bayer Aktiengesellschaft, priority 2016, dated 2021).
Where a name gives a salt, the structure may show the parent alone. Read-outs that look alike come from different tables or passages of the source.

Key:
MCL-1 = MCL-1 (Homo sapiens, UniProt Q07820); test: Protein-protein interaction assay MCL-1/Noxa BH3 peptide (MCL-1 assay), TR-FRET; type: binding; details: MBP-MCL-1 / Noxa BH3-derived peptide, median
Chain of MCL-1 (Q07820 whole entry): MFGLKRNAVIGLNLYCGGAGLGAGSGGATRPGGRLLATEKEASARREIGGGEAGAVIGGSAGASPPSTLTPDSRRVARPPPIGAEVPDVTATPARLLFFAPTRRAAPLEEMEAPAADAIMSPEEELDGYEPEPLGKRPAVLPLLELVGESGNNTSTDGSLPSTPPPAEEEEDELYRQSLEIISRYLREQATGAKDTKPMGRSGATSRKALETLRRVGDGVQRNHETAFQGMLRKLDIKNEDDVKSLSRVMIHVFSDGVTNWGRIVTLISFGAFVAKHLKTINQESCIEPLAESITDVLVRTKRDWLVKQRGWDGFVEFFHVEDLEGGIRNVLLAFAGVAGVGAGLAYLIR
Procedure, shortened: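 Inhibition values were normalized between DMSO controls with all reagents and controls lacking MCL-1. The binding competition used 1 nM MBP-MCL-1 in pH 7 Tris buffer containing 50 mM KF and 100 mM NaCl, with a 10 min compound preincubation at 22 °C.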

SUDHL5 [1] = test: Induction of caspase-3/7 activity (Caspase-Glo 3/7), SUDHL5; type: cell-based; details: caspase-3/7 induction, SUDHL5 cells, 3 h treatment; median
Procedure, shortened: (§1)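 Apoptosis induction measured as caspase-3/7 activity (Caspase-Glo 3/7) in DLBCL lines after 3 h treatment at 37 °C; EC50 derived relative to the reference compound's maximal induction, with C0 fixed at 1.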

MV-4-11 = test: Anti-proliferative effect (CellTiter-Glo, 72 h), MV-4-11; type: cell-based; details: MV-4-11 cells, median, read-out: IC50 antiproliferation assay MV-4-11 [M] (median)
Procedure, shortened: (§2)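 Luminescence from CellTiter-Glo, read 10 min after reagent addition, reports viable cell content after 72 h of compound treatment at 37 °C. A reference plate read at day 0 gives the starting baseline.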

SUDHL10 [2] = test: Induction of cytotoxicity (CellTiter-Glo, 5 h), SUDHL10; details: read-out: Cytotox SUDHL10 [M] (median), SUDHL10 cells, cytotoxicity induction, CellTiter-Glo, median
SUDHL5 [3] = test: Anti-proliferative effect (CellTiter-Glo, 72 h), SUDHL5; type: cell-based; details: SUDHL5 cells, antiproliferation, median, read-out: Antiproli SUDHL5 [M] (median)
Procedure, shortened: as §2

SK-MEL-2 = test: Anti-proliferative effect (CellTiter-Glo, 72 h), SK-MEL-2; type: cell-based; details: Homo sapiens, SK-MEL-2 cells, median, read-out: IC50 antiproliferation assay SK-MEL-2 [M] (median)
Method: Assessment of the Anti-Proliferative Effect of Compounds in Different Cell Lines
(§3) The impact of compounds on the proliferation of different cell lines was assessed using the CellTiter-Glo® Luminescent Cell Viability reagent from Promega (G7573). Of note, SUDHL10 and SUDHL5 (DLBCL), NCI-H929 (Multiple Myeloma), A2780 (ovarian carcinoma) as well as MV-4-11(AML) cells are sensitive to MCL-1 inhibition.
(§4) In parallel, cells were plated in a reference (day 0) plate for time zero determination.
(§5) Rim wells were excluded. The cells were incubated for 72 h hours in a humidified incubator at 37° C. The day 0 plate was measured by adding 30 μl/well of CTG solution (CellTiter-Glo® Luminescent Cell Viability reagent, Promega G7573) to time zero wells in the reference plate followed by a 10 minutes incubation and luminescence reading at 0.1 ms, using the PHERAstar FS microplate reader (BMG Labtech).
(§6) After 72 h incubation, the treated plates were measured in the same way as the day 0 plate mentioned above.

SUDHL10 [4] = test: Induction of caspase-3/7 activity (Caspase-Glo 3/7), SUDHL10; type: cell-based; details: caspase-3/7 induction, SUDHL10 cells, 3 h treatment; median
Procedure, shortened: as §1

A2780 = test: Anti-proliferative effect (CellTiter-Glo, 72 h), A2780; type: cell-based; details: Homo sapiens, A2780, 72 h, A2780 cells, median, read-out: IC50 antiproliferation assay A2780 [M] (median)
Procedure, shortened: as §2

SUDHL5 [5] = test: Induction of cytotoxicity (CellTiter-Glo, 5 h), SUDHL5; details: read-out: Cytotox SUDHL5 [M] (median), SUDHL5 cells, cytotoxicity induction, CellTiter-Glo, median
NCI-H1703 = test: Anti-proliferative effect (CellTiter-Glo, 72 h), NCI-H1703; type: cell-based; details: Homo sapiens, NCI-H1703 cells, median, read-out: IC50 antiproliferation assay NCI-H1703 [M] (median)
Method: as §3, §4, §5, §6

SUDHL10 [6] = test: Anti-proliferative effect (CellTiter-Glo, 72 h), SUDHL10; type: cell-based; details: SUDHL10 cells, antiproliferation, 72 h incubation, median, read-out: Antiproli SUDHL10 [M] (median)
Procedure, shortened: as §2

[7] = rcm bond, Grubbs 2nd generation catalyst

IC50 (MCL-1) [µM]	EC50 (SUDHL5 [1]) [µM]	IC50 (MV-4-11; Homo sapiens, MV4-11, 72 h) [M]	IC50 (SUDHL5 [3]; 72 h incubation) [M]	IC50 (SK-MEL-2) [M]	EC50 (SUDHL10 [4]) [µM]	IC50 (A2780) [M]	IC50 (NCI-H1703) [M]	IC50 (MV-4-11) [M]	IC50 (SUDHL5 [3]; 72 h) [M]	IC50 (SUDHL10 [6]) [M]	SMILES	IC50 (SUDHL10 [2]; 5 h incubation) [M]	IC50 (SUDHL5 [5]; 5 h incubation) [M]	IC50 (SUDHL10 [2]; 5 h) [M]	IC50 (SUDHL5 [5]; 5 h) [M]	ring closure, yield of all isomers ([7]; from C=CCN(Cc1ccccc1)c1c(-c2cccc3c(CCCOc4cccc5ccccc45)c(C(=O)OCC)n(CC=C)c23)c(C)nn1C, toluene, 6.11 mM, 90.0 °C, 5.5 h) [%]	ring closure, yield of all isomers ([7]; from C=CCOCc1c(-c2cccc3c(CCCOc4cccc5ccccc45)c(C(=O)OCC)n(CC=C)c23)c(COc2ccccc2)nn1C, dichloromethane, 78.3 mM, 25.0 °C, 24.0 h) [%]
0.00109	0.385	–	5.78e-07	1.25e-05	0.906	8.66e-06	4.85e-06	3.69e-06	–	–	CCc1c2c(nn1C)COCCCCn1c(C(=O)O)c(CCCOc3cccc4cc(F)ccc34)c3cccc-2c31 (single isomer, unassigned) [Example 282, (+)-3-ethyl-7-{3-[(6-fluoronaphthalen-1-yl)oxy]propyl}-2-methyl-2,10,11,12,13,15-hexahydropyrazolo[4′,3′:9,10][1,6]oxazacycloundecino[8,7,6-hi]indole-8-carboxylic acid-N-ethylethanamine Salt]	7.8e-07	6.16e-07	–	–	–	–
0.00149	1.57	9.86e-06	–	> 3.3e-05	5.85	> 3.3e-05	1.76e-05	–	1.54e-06	–	CCc1nn(C)c2c1-c1cccc3c(CCCOc4cccc5cc(F)ccc45)c(C(=O)O)n(c13)CCCCOC2 (single isomer, unassigned) [Example 288, (+)-3-ethyl-7-{3-[(6-fluoronaphthalen-1-yl)oxy]propyl}-1-methyl-1,10,11,12,13,15-hexahydropyrazolo[4′,3′:9,10][1,6]oxazacycloundecino[8,7,6-hi]indole-8-carboxylic Acid]	–	–	6.54e-06	1.68e-06	–	–
0.000782	0.646	–	9.39e-07	1.09e-05	1.41	1.22e-05	6.98e-06	3.61e-06	–	–	Cc1c2c(nn1CCN1CCOCC1)COCCCCn1c(C(=O)O)c(CCCOc3cccc4cc(F)ccc34)c3cccc-2c31 (single isomer, unassigned) [Example 285, (+)-7-{3-[(6-fluoronaphthalen-1-yl)oxy]propyl}-3-methyl-2-[2-(morpholin-4-yl)ethyl]-2,10,11,12,13,15-hexahydropyrazolo[4′,3′:9,10][1,6]oxazacycloundecino[8,7,6-hi]indole-8-carboxylic acid-N-ethylethanamine Salt]	2.81e-06	7.5e-07	–	–	–	–

The next lines start with the compound.

SMILES	IC50 (MCL-1) [µM]	EC50 (SUDHL5 [1]) [µM]	IC50 (MV-4-11; Homo sapiens, MV4-11, 72 h) [M]	IC50 (SUDHL5 [3]; 72 h incubation) [M]	IC50 (SK-MEL-2) [M]	EC50 (SUDHL10 [4]) [µM]	IC50 (A2780) [M]	IC50 (NCI-H1703) [M]	IC50 (MV-4-11) [M]	IC50 (SUDHL5 [3]; 72 h) [M]	IC50 (SUDHL10 [6]) [M]	IC50 (SUDHL10 [2]; 5 h incubation) [M]	IC50 (SUDHL5 [5]; 5 h incubation) [M]	IC50 (SUDHL10 [2]; 5 h) [M]	IC50 (SUDHL5 [5]; 5 h) [M]	ring closure, yield of all isomers ([7]; from C=CCN(Cc1ccccc1)c1c(-c2cccc3c(CCCOc4cccc5ccccc45)c(C(=O)OCC)n(CC=C)c23)c(C)nn1C, toluene, 6.11 mM, 90.0 °C, 5.5 h) [%]	ring closure, yield of all isomers ([7]; from C=CCOCc1c(-c2cccc3c(CCCOc4cccc5ccccc45)c(C(=O)OCC)n(CC=C)c23)c(COc2ccccc2)nn1C, dichloromethane, 78.3 mM, 25.0 °C, 24.0 h) [%]
CCc1nn(C)c2c1-c1c(C)ccc3c(CCCOc4cccc5cc(F)ccc45)c(C(=O)O)n(c13)CCCCOC2 (single isomer, unassigned) [Example 267, (+)-3-ethyl-7-{3-[(6-fluoronaphthalen-1-yl)oxy]propyl}-1,4-dimethyl-1,10,11,12,13,15-hexahydropyrazolo[4′,3′:9,10][1,6]oxazacycloundecino[8,7,6-hi]indole-8-carboxylic Acid]	0.00037	1.14	7.02e-06	1.89e-06	2e-05	4.6	2.15e-05	1.36e-05	–	–	–	3.66e-06	1.11e-06	–	–	–	–
CCc1nn(CCN2CCOCC2)c2c1-c1cccc3c(CCCOc4cccc5ccccc45)c(C(=O)O)n(c13)CCCCOC2 (single isomer, unassigned; enantiomer 1) [Example 199, 3-ethyl-1-[2-(morpholin-4-yl)ethyl]-7-[3-(naphthalen-1-yloxy)propyl]-1,10,11,12,13,15-hexahydropyrazolo[4′,3:9,10][1,6]oxazacycloundecino[8,76-hi]indole-8-carboxylic Acid (Enantiomer 1)]	0.00126	0.899	7.51e-06	1.65e-06	2.9e-05	3.46	1.57e-05	1.46e-05	–	–	1.13e-06	2.92e-06	9.25e-07	–	–	–	–
CCOC(=O)c1c(CCCOc2cccc3ccccc23)c2cccc3c2n1CC=CCN(Cc1ccccc1)c1c-3c(C)nn1C	–	–	–	–	–	–	–	–	–	–	–	–	–	–	–	96.7	–
CCOC(=O)c1c(CCCOc2cccc3ccccc23)c2cccc3c2n1CC=CCOCc1c-3c(COc2ccccc2)nn1C (mixture of isomers)	–	–	–	–	–	–	–	–	–	–	–	–	–	–	–	–	56.9
